Experimental data: patent US11834440B2, “Beta-lactam derivatives for the treatment of diseases” (Insilico Medicine IP Limited, priority 2021, dated 2023)

Target: QPCTL (Homo sapiens (Human), UniProt Q9NXS2)
Test: QPCTL inhibition, SensoLyte Green Glutaminyl Cyclase Activity Assay
Format: biochemical
Conditions: 0.8 nM 2x enzyme solution, 45 min at 37° C., 50 mM Tris pH 8.0, 1% DMSO
Protocol: Preparation of working solution: 2×Glutaminyl Cyclase substrate was diluted in assay buffer to […]. 2×enzyme solution and QPCTL was diluted in assay buffer to 0.8 nM. Glutaminyl Cyclase Developer was diluted in assay buffer to 1×(containing 10 mM 1-Benzyl-Imidazole). Serial dilution of test compounds was performed in DMSO. The final DMSO concentration in 100 μl reaction was 1%. The assay buffer was 50 mM Tris, pH 8.0, 0.01% BSA.
Procedure: 50 μL of 2×Glutaminyl Cyclase substrate solution was added into the assay plate followed by 50 μL of 2×enzyme solution. The plate was centrifuged for 1 min at 1000 rmp. Next the plate was incubated for 45 minutes at 37° C. This was followed by the additional of 50 μL of the prepared Glutaminyl Cyclase developer and incubated for additional 30 min at 37° C. Results were read on SpectraMax Paradigm detecting with emission at Ex/Em=490 nm/520 nm.
A Z′ value was calculated for each assay plate. The Z′ value must be >0.5 or the plate was disqualified. […] Results were calculated using GraphPad Prism 7 software is used for IC50 determination.

Sequence of QPCTL (Q9NXS2 whole entry, species assumed): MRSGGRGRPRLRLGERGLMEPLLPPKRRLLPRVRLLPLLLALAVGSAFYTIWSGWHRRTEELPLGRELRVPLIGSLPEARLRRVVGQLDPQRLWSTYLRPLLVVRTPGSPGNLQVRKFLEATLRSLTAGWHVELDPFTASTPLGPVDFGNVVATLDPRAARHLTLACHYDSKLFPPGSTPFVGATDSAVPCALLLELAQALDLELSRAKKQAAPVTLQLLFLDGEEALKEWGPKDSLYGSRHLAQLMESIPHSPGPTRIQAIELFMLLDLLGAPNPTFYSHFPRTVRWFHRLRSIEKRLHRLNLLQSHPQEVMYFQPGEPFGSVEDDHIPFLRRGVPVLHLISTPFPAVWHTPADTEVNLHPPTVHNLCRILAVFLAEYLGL

SMILES	IC50
O=C1[C@H](C2CC2)[C@H](c2c(F)cc(-c3cn(C(F)(F)F)cn3)cc2F)N1c1ccc2[nH]cnc2c1 (single isomer, unassigned) [Compound 49B]	2 to 25 nM
O=C1[C@H](C2CC2)[C@H](c2c(F)cc(OCCC(F)F)cc2F)N1c1ccc2[nH]cnc2c1 (single isomer, unassigned) [Compound 18B]	< 2 nM
Cc1cc([C@H]2[C@@H](C3CC3)C(=O)N2c2ccc3[nH]cnc3c2)ccc1-c1cnn(C(F)(F)F)c1 (single isomer, unassigned) [Compound 57B]	< 2 nM
Cc1cc(-c2cnn(C(F)(F)F)c2)ncc1[C@@H]1[C@H](C2CC2)C(=O)N1c1ccc2[nH]cnc2c1 (single isomer, unassigned) [Compound 66A]	25 to 1000 nM
Cc1cc([C@@H]2[C@H](C3CC3)C(=O)N2c2ccc3[nH]cnc3c2)ccc1-c1cnn(C(F)(F)F)c1 (single isomer, unassigned) [Compound 57A]	25 to 1000 nM
O=C1[C@H](C2CC2)[C@H](c2ccc(-c3cnn(C(F)(F)F)c3)cc2)N1c1ccc2[nH]cnc2c1 (single isomer, unassigned) [Compound 55B]	< 2 nM
O=C1[C@@H](C2CC2)[C@@H](c2ccc(-c3cnn(C(F)(F)F)c3)cn2)N1c1ccc2[nH]cnc2c1 (single isomer, unassigned) [Compound 46A]	25 to 1000 nM
Cn1cc(-c2cc(F)c([C@@H]3[C@H](O)C(=O)N3c3ccc4[nH]cnc4c3)c(F)c2)cn1 (single isomer, unassigned) [Compound 15A]	> 1000 nM
Cc1nc(-n2cnc(C(F)(F)F)c2)ccc1[C@@H]1[C@H](C2CC2)C(=O)N1c1ccc2[nH]cnc2c1 (single isomer, unassigned) [Compound 72A]	> 1000 nM
O=C1[C@H](C2CC2)[C@H](c2c(F)cc(-n3ncc(C(F)(F)F)n3)cc2F)N1c1ccc2[nH]cnc2c1 (single isomer, unassigned) [Compound 60B]	< 2 nM
O=C1[C@@H](C2CC2)[C@@H](c2c(F)cc(-n3ccc(C(F)(F)F)n3)cc2F)N1c1ccc2[nH]cnc2c1 (single isomer, unassigned) [Compound 48A]	2 to 25 nM
Cc1oncc1-c1cc(F)c([C@H]2[C@@H](C3CC3)C(=O)N2c2ccc3[nH]cnc3c2)c(F)c1 (single isomer, unassigned) [Compound 63B]	< 2 nM
Cc1cc(-n2cnc(C(F)(F)F)c2)ncc1[C@@H]1[C@H](C2CC2)C(=O)N1c1ccc2[nH]cnc2c1 (single isomer, unassigned) [Compound 73A]	25 to 1000 nM
O=C1[C@@H](C2CC2)[C@@H](c2ccc(-c3cnn(C(F)(F)F)c3)cc2Cl)N1c1ccc2[nH]cnc2c1 (single isomer, unassigned) [Compound 75A]	25 to 1000 nM
